In patent publication US9029345B2, “Selective inhibitors of translesion DNA replication” (Case Western Reserve University, priority 2005, dated 2015):
Blank lines part the entries; values can stand above or below the compound they belong to.

What was measured:
control Sf9 membranes = test: ATPase activity of control Sf9 membranes; format: biochemical
Protocol: (§1) The in vitro activity of the triphosphate of 5-CHInd (5-CHITP) against P-gp was evaluated through its ability to inhibit vinblastine-stimulated ATP hydrolysis. These experiments used purified P-gp membranes expressed and isolated in Sf9 insect cells (BD Biosciences). ATP hydrolysis was quantified by the amount of ^32Pi release from γ^32P-ATP as a function of time. Reactions containing vinblastine were initiated by the addition of membranes and quenched in trichloroacetic acid and ammonium heptamolybdate. Heptamolybdophosphoric acid was separated by organic phase extraction and the presence of ^32Pi was quantified by liquid scintillation counting. […] The inhibition of 5-CHITP is selective for P-gp as the ATPase activity of control Sf9 membranes is not inhibited whereas sodium orthovanadate inhibits by about 50%.

P-gp [1] = biological target: T1, P-gp (Homo sapiens, UniProt P08183); test: vinblastine-stimulated ATP hydrolysis by purified P-gp membranes (32Pi release); format: biochemical; parameters: endogenous in cells
Protocol: as §1

CDKs = test: flow cytometry, cell cycle; format: cell-based; details: preliminary flow cytometry data
SKOV/VBL cells = test: potentiation of vinblastine in SKOV/VBL cells; format: cell-based; details: 25 or 50 μg/ml 5-CHInd with 0.5 or 1 μg/ml vinblastine
Protocol: (§2) The potentiation of vinblstine by 5-CHInd was also assessed in MDR negative cesll (SKOV3) and MDR positive SKOV/VBL cells by administering various concentrations of vinblastine and 5-CHInd to the cells. FIG. 6 is a graph illustrating the cytoxic effect of 25 μg/ml of 5-CHInd (CH25), 50 μg/ml of 5-CHInd (CH50), 0.5 μg/ml of vinblastine (VinB 0.5), 1 μg/ml of vinblastine (VinB 1), 25 μg/ml of 5-CHInd in combination with 0.5 μg/ml of vinblastine (CH25+VinB 0.5), 25 μg/ml of 5-CHInd in combination with 1 μg/ml of vinblastine (CH25+VinB 1), 50 μg/ml of 5-CHInd in combination with 0.5 μg/ml of vinblastine (CH50+VinB 0.5), and 50 μg/ml of 5-CHInd in combination with 1 μg/ml of vinblastine (CH50+VinB 1) administered respectively to SKOV3 and SKOV/VBL cells.

P-gp [2] = biological target: T1, P-gp
CEM-C7 cells = test: intracellular [3H]-vinblastine accumulation and efflux in CEM-C7 cells; format: cell-based; details: devoid of P-gp
P-gp [3] = biological target: T1, P-gp; test: intracellular [3H]-vinblastine accumulation and efflux in CEM-VBL cells; format: cell-based; parameters: endogenous in cells
Protocol: Intracellular drug accumulation studies use confluent CEM-C7 and CEM-VBL cells incubated with [^3H]-vinblastine (Moravek Biochemicals, Brea, Calif.) in the absence or presence of 5-CHInd. After attainment of equilibrium, cells are harvested and washed to remove any unbound [^3H]-vinblastine. Washed cells are then solubized and the retained radioactivity is quantified by liquid scintillation techniques. Measured radioactivity is normalized for protein content, and drug accumulation is expressed as a percentage of the vehicle control.
To measure the effect of 5-CHInd on the efflux of [^3H]-vinblastine, CEM-VBL cells are incubated with a sub-lethal dose of 5-CHInd or vehicle (DMSO) followed by the addition of a fixed concentration of [^3H]-vinblastine. After attainment of equilibrium, cells are washed and aliquots are analyzed for [^3H]-vinblastine accumulation at variable times (5 to 120 minutes). The efflux rate constant is obtained from a fit of the data to y=Ae^−kt where y is the amount of radioactivity at time t, A is maximal amplitude in accumulation, k is the efflux rate constant, and t is time.

SKOV3 cells = test: potentiation of vinblastine in SKOV3 cells; format: cell-based; details: 25 or 50 μg/ml 5-CHInd with 0.5 or 1 μg/ml vinblastine
Protocol: as §2

P-glycoprotein [4] = biological target: T2, P-glycoprotein (Homo sapiens, UniProt P08183); test: NIMH Psychoactive Drug Screening Program (PDSP) screen; details: first determined using PDSP
T2 construct: endogenous in cells; host or cells: CEM/VBL (CEM-VBL) leukemia cells
Excerpt: (§3) This was first determined using the NIMH Psychoactive Drug Screening Program (PDSP) which performs pharmacological and functional screens of novel compounds. This initial screening effort lead us to test the ability of 5-CHInd to block the export of Hoechst dye, a known substrate for P-gp. Control experiments verify that CEM cells not overexpressing p-glycoprotein show accumulation of the Hoechst dye as indicated by nuclear staining (FIG. 3A).

P-glycoprotein [5] = biological target: T2, P-glycoprotein; test: export of Hoechst dye from CEM/VBL cells overexpressing P-gp; format: cell-based; details: sub-lethal concentration, compared to untreated CEM/VBL
Excerpt: as §3

P-gp [6] = biological target: T1, P-gp; test: control experiments: potentiation of other chemotherapeutic agents; details: does not inhibit P-gp

T1 sequence (P08183 whole entry): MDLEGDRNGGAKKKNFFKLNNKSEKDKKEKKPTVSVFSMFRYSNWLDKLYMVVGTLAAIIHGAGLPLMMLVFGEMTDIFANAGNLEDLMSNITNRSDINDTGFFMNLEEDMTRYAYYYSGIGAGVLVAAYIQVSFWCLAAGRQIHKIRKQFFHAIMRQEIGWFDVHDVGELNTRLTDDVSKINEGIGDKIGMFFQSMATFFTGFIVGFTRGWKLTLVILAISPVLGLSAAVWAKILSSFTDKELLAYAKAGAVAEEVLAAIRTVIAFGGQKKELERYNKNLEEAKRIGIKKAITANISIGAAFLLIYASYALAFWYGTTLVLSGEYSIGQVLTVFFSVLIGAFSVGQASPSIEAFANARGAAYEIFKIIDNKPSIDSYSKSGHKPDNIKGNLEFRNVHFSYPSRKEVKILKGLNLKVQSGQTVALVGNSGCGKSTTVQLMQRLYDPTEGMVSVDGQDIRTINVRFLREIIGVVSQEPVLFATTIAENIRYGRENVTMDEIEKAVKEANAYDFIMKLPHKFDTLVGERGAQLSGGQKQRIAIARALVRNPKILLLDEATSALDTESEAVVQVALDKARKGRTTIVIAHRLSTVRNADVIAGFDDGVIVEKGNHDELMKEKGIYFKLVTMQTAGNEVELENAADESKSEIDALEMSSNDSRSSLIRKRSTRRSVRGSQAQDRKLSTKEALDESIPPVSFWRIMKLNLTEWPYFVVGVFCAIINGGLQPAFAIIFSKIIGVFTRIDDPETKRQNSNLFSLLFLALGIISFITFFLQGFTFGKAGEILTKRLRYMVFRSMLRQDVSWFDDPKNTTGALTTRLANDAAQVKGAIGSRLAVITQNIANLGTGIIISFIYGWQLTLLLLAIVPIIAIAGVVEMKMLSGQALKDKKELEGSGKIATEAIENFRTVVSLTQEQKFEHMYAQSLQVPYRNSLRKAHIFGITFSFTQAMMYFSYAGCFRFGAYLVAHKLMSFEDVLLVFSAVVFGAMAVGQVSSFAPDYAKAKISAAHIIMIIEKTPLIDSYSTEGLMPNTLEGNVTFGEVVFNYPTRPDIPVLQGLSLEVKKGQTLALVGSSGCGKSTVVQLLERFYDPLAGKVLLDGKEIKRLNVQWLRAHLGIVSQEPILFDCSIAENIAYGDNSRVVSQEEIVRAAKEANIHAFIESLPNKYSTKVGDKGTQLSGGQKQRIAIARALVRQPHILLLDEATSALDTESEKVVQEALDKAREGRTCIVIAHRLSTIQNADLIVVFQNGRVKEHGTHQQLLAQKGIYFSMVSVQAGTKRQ
T2 sequence (P08183 whole entry): as above

inhibition of ATPase activity of control Sf9 membranes (control Sf9 membranes; 5-CHITP): not inhibited | inhibition of ATPase activity of P-gp (P-gp [1]; 50 μM): 52%
Structure (SMILES): O=P(O)(O)OP(=O)(O)OP(=O)(O)OC[C@H]1O[C@@H](n2ccc3cc(C4CCCCC4)ccc32)C[C@@H]1O [5-CHITP]

Structure (SMILES): OC[C@H]1OC(n2ccc3cc(C4CCCCC4)ccc32)C[C@@H]1O (some centres unmarked) [5-CHInd, 5-cylclohexyl-1-indolyl-2-deoxyriboside]
cell cycle arrest (CDKs): induces cell cycle arrest | potentiation of vinblastine (FIG. 6) (SKOV/VBL cells): potentiation of vinblastine | potentiation of the effects of 5-fluorouracil (P-gp [2]): does not potentiate | potentiation of the effects of cisplatin (P-gp [2]): does not potentiate | potentiation of the effects of doxorobucin (P-gp [2]): potentiates | potentiation of the effects of paclitaxel (P-gp [2]): potentiates | effect on accumulation or efflux of [3H]-vinblastine (CEM-C7 cells): no effect | accumulation of [3H]-vinblastine (P-gp [3]): significant accumulation | rate constant for drug efflux (P-gp [3]; compared to vehicle-treated cells): decrease in rate constant for drug efflux | potentiation of vinblastine (FIG. 6) (SKOV3 cells): potentiation of vinblastine | inhibition of p-glycoprotein activity (P-glycoprotein [4]): can inhibit the activity of p-glycoprotein | accumulation of Hoechst dye (inhibition of P-gp export) (P-glycoprotein [5]): enhanced accumulation of the Hoechst dye | LD50 (leukemia cell lines): about 20 μg/mL | cytotoxic effect (flow cytometry, FIG. 2) (leukemia cell lines; leukemia cells, closely mimics staurosporine): rapid cytotoxic effect

Structure (SMILES): OC[C@H]1OC(n2ccc3cc(-c4ccccc4)ccc32)C[C@@H]1O (some centres unmarked) [5-PhInd]
cell death (leukemia cell lines; at the concentrations tested, data not shown): cause cell death

inhibition of ATPase activity of control Sf9 membranes (control Sf9 membranes; sodium orthovanadate): about 50% | inhibition of ATPase activity of P-gp (P-gp [1]; 1 μM, compared with 52% by 50 μM 5-CHITP): comparable
Structure (SMILES): [Na+].[Na+].[Na+].[O]=[V]([O-])([O-])[O-] [sodium orthovanadate, reference compound]

Structure (SMILES): CN[C@@H]1C[C@H]2O[C@@](C)([C@@H]1OC)n1c3ccccc3c3c4c(c5c6ccccc6n2c5c31)C(=O)NC4 [staurosporine]
action as potentiating agent (P-gp [6]): does not act as a potentiating agent
